# Source: PubChem BioAssay (NCI)
#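 48-hour exposure; five concentrations; linearly interpolated endpoints. At the GI50, growth is halved. TGI marks complete inhibition of growth.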
# Assays:
# Assay in all cases: NCI tumour cell line growth inhibition, 48 h
# 786-0 renal = test system: 786-0 renal
# A498 renal = test system: A498 renal
# A549 NSCLC = test system: A549 NSCLC
# ACHN renal = test system: ACHN renal
# BT-549 breast = test system: BT-549 breast
# CAKI-1 renal = test system: CAKI-1 renal
# CCRF-CEM leukemia = test system: CCRF-CEM leukemia
# COLO 205 colon = test system: COLO 205 colon
# DU-145 prostate = test system: DU-145 prostate
# EKVX NSCLC = test system: EKVX NSCLC
# HCC-2998 colon = test system: HCC-2998 colon
# HCT-116 colon = test system: HCT-116 colon
# HCT-15 colon = test system: HCT-15 colon
# HL-60(TB) leukemia = test system: HL-60(TB) leukemia
# HOP-62 NSCLC = test system: HOP-62 NSCLC
# HOP-92 NSCLC = test system: HOP-92 NSCLC
# HS 578T breast = test system: HS 578T breast
# HT29 colon = test system: HT29 colon
# IGROV1 ovarian = test system: IGROV1 ovarian
# K-562 leukemia = test system: K-562 leukemia
# KM12 colon = test system: KM12 colon
# LOX IMVI melanoma = test system: LOX IMVI melanoma
# M14 melanoma = test system: M14 melanoma
# MALME-3M melanoma = test system: MALME-3M melanoma
# MCF7 breast = test system: MCF7 breast
# MDA-MB-231 breast = test system: MDA-MB-231 breast
# MDA-MB-435 = test system: MDA-MB-435
# MOLT-4 leukemia = test system: MOLT-4 leukemia
# NCI-H226 lung = test system: NCI-H226 lung
# NCI-H23 lung = test system: NCI-H23 lung
# NCI-H460 lung = test system: NCI-H460 lung
# NCI-H522 lung = test system: NCI-H522 lung
# NCI/ADR-RES ovarian = test system: NCI/ADR-RES ovarian
# OVCAR-3 ovarian = test system: OVCAR-3 ovarian
# OVCAR-4 ovarian = test system: OVCAR-4 ovarian
# OVCAR-5 ovarian = test system: OVCAR-5 ovarian
# OVCAR-8 ovarian = test system: OVCAR-8 ovarian
# PC-3 prostate = test system: PC-3 prostate
# RPMI-8226 leukemia = test system: RPMI-8226 leukemia
# RXF 393 renal = test system: RXF 393 renal
# SF-268 CNS = test system: SF-268 CNS
# SF-295 CNS = test system: SF-295 CNS
# SF-539 CNS = test system: SF-539 CNS
# SK-MEL-2 melanoma = test system: SK-MEL-2 melanoma
# SK-MEL-28 melanoma = test system: SK-MEL-28 melanoma
# SK-MEL-5 melanoma = test system: SK-MEL-5 melanoma
# SK-OV-3 ovarian = test system: SK-OV-3 ovarian
# SN12C renal = test system: SN12C renal
# SNB-19 CNS = test system: SNB-19 CNS
# SNB-75 CNS = test system: SNB-75 CNS
# SR leukemia = test system: SR leukemia
# SW-620 colon = test system: SW-620 colon
# T-47D breast = test system: T-47D breast
# TK-10 renal = test system: TK-10 renal
# U251 CNS = test system: U251 CNS
# UACC-257 melanoma = test system: UACC-257 melanoma
# UACC-62 melanoma = test system: UACC-62 melanoma
# UO-31 renal = test system: UO-31 renal
smiles,measurement,setting,value
COC(=O)[C@H]1[C@@H](O)[C@@]2(O)c3c(OC)cc(O[C@@H]4O[C@@H]([C@H](O)CO)CO[C@H]4OC)cc3O[C@@]2(c2ccc(OC)cc2)[C@@H]1c1ccccc1,GI50,786-0 renal,28.2 nM
same,TGI,786-0 renal,127 nM
same,GI50,A498 renal,5.37 nM
same,TGI,A498 renal,14.1 nM
same,GI50,A549 NSCLC,4.63 nM
same,TGI,A549 NSCLC,45.7 nM
same,GI50,ACHN renal,59.7 nM
same,TGI,ACHN renal,783 nM
same,GI50,BT-549 breast,4.34 nM
same,TGI,BT-549 breast,32.2 nM
same,GI50,CAKI-1 renal,997 nM
same,TGI,CAKI-1 renal,> 1000 nM
same,GI50,CCRF-CEM leukemia,5.45 nM
same,TGI,CCRF-CEM leukemia,125 nM
same,GI50,COLO 205 colon,3.09 nM
same,TGI,COLO 205 colon,9.89 nM
same,GI50,DU-145 prostate,4.16 nM
same,TGI,DU-145 prostate,46 nM
same,GI50,EKVX NSCLC,6.59 nM
same,TGI,EKVX NSCLC,105 nM
same,GI50,HCC-2998 colon,2.97 nM
same,TGI,HCC-2998 colon,16.4 nM
same,GI50,HCT-116 colon,3.71 nM
same,GI50,HCT-15 colon,233 nM
same,TGI,HCT-15 colon,> 1000 nM
same,GI50,HL-60(TB) leukemia,3.27 nM
same,TGI,HL-60(TB) leukemia,18.5 nM
same,GI50,HOP-62 NSCLC,3.19 nM
same,TGI,HOP-62 NSCLC,18.1 nM
same,GI50,HOP-92 NSCLC,3.25 nM
same,TGI,HOP-92 NSCLC,15.1 nM
same,GI50,HS 578T breast,5.96 nM
same,TGI,HS 578T breast,80.6 nM
same,GI50,HT29 colon,3 nM
same,TGI,HT29 colon,14.2 nM
same,GI50,IGROV1 ovarian,5.85 nM
same,TGI,IGROV1 ovarian,71.7 nM
same,GI50,K-562 leukemia,3.86 nM
same,TGI,K-562 leukemia,> 1000 nM
same,GI50,KM12 colon,3.29 nM
same,TGI,KM12 colon,33.3 nM
same,GI50,LOX IMVI melanoma,2.63 nM
same,TGI,LOX IMVI melanoma,9.86 nM
same,GI50,M14 melanoma,8.18 nM
same,TGI,M14 melanoma,27.1 nM
same,GI50,MALME-3M melanoma,3.21 nM
same,TGI,MALME-3M melanoma,25.9 nM
same,GI50,MCF7 breast,3.12 nM
same,TGI,MCF7 breast,33 nM
same,GI50,MDA-MB-231 breast,3.86 nM
same,TGI,MDA-MB-231 breast,23.7 nM
same,GI50,MDA-MB-435,3.58 nM
same,TGI,MDA-MB-435,14.3 nM
same,GI50,MOLT-4 leukemia,3.1 nM
same,GI50,NCI-H226 lung,8.13 nM
same,TGI,NCI-H226 lung,78 nM
same,GI50,NCI-H23 lung,4.41 nM
same,TGI,NCI-H23 lung,42.2 nM
same,GI50,NCI-H460 lung,4 nM
same,TGI,NCI-H460 lung,69.5 nM
same,GI50,NCI-H522 lung,3.44 nM
same,TGI,NCI-H522 lung,24.1 nM
same,TGI,NCI/ADR-RES ovarian,> 1000 nM
same,GI50,OVCAR-3 ovarian,3.78 nM
same,TGI,OVCAR-3 ovarian,35 nM
same,GI50,OVCAR-4 ovarian,5.06 nM
same,TGI,OVCAR-4 ovarian,48.4 nM
same,GI50,OVCAR-5 ovarian,3.83 nM
same,TGI,OVCAR-5 ovarian,31.1 nM
same,GI50,OVCAR-8 ovarian,19.3 nM
same,TGI,OVCAR-8 ovarian,136 nM
same,GI50,PC-3 prostate,4.05 nM
same,TGI,PC-3 prostate,33.8 nM
same,GI50,RPMI-8226 leukemia,3.14 nM
same,TGI,RPMI-8226 leukemia,11.3 nM
same,GI50,RXF 393 renal,9.44 nM
same,TGI,RXF 393 renal,43.6 nM
same,GI50,SF-268 CNS,3.42 nM
same,TGI,SF-268 CNS,42.5 nM
same,GI50,SF-295 CNS,12.7 nM
same,TGI,SF-295 CNS,47.1 nM
same,GI50,SF-539 CNS,1.87 nM
same,TGI,SF-539 CNS,6.86 nM
same,GI50,SK-MEL-2 melanoma,3.54 nM
same,TGI,SK-MEL-2 melanoma,15.8 nM
same,GI50,SK-MEL-28 melanoma,3.21 nM
same,TGI,SK-MEL-28 melanoma,11.9 nM
same,GI50,SK-MEL-5 melanoma,6.62 nM
same,TGI,SK-MEL-5 melanoma,49.4 nM
same,GI50,SK-OV-3 ovarian,2.96 nM
same,TGI,SK-OV-3 ovarian,32.5 nM
same,GI50,SN12C renal,3.59 nM
same,TGI,SN12C renal,50.1 nM
same,GI50,SNB-19 CNS,2.77 nM
same,TGI,SNB-19 CNS,38.4 nM
same,GI50,SNB-75 CNS,4 nM
same,TGI,SNB-75 CNS,32.1 nM
same,GI50,SR leukemia,3.41 nM
same,TGI,SR leukemia,147 nM
same,GI50,SW-620 colon,6.05 nM
same,TGI,SW-620 colon,186 nM
same,GI50,T-47D breast,2.26 nM
same,TGI,T-47D breast,19.9 nM
same,GI50,TK-10 renal,29.5 nM
same,TGI,TK-10 renal,108 nM
same,GI50,U251 CNS,3.52 nM
same,TGI,U251 CNS,20.2 nM
same,GI50,UACC-257 melanoma,6.27 nM
same,TGI,UACC-257 melanoma,45.1 nM
same,GI50,UACC-62 melanoma,6.94 nM
same,TGI,UACC-62 melanoma,32.2 nM
same,GI50,UO-31 renal,136 nM
same,TGI,UO-31 renal,755 nM
